In patent US20080096958A1, “Antibacterial Composition” (priority 2004, published 2008):
Values after ≈ are worked out from the molar mass of the structure shown. Where two headings read alike, the source gives them in different places.

Tests used:
Assay type in all cases: cell-based
[1] = test system: Staphyrococcus epidermidis JCM 2414; experiment: MIC by Agar Dilution Test, Se-1; details: read-out: Minimum inhibitory concentration (MIC)
Protocol: (§1) Minimum inhibitory concentration (MIC) was determined by Agar Dilution Test (ADT).
(§2) Each antibacterial composition obtained in Example 1 was dissolved in ethanol or water (according to solubility of each antibacterial composition) to carry out two-fold serial dilution. A hundred μl of the resultant was added to a 10 ml sterilized agar medium (skin-related bacteria and standard bacteria in Mueller-Hinton Medium (Difco), yeast and filamentous bacteria in Sabroud Medium (Difco) and anaerobic bacteria in Trypticase Soy agar (BBL)), well agitated, transferred to a 9 cmf petri dish and immobilized at room temperature. To this petri dish, a 27-spot microplanter MIT-P from Sakuma Seisakusho, LTD. was used to spot 1×10^5 cfu (colony forming unit) of skin-related bacteria and standard bacteria, and the resultants were cultured at 37° C. for 18 hours. Anaerobic bacteria are cultured at 37° C. for 72 hours under anaerobic conditions (using BBL gas pack anaerobic system). After completion of cultivation, growth of each bacterium was compared with that in a petri dish with alcohol alone (blank). A concentration of a sample without a bacterium growth was determined as the minimum inhibitory concentration (MIC).
(§3) As comparative substances, butylparaben (BPHB) and triclosan were determined as well.

[2] = test system: Staphyrococcus epidermidis var. h-6; experiment: MIC by Agar Dilution Test, Se-2; details: read-out: Minimum inhibitory concentration (MIC)
Protocol: as §1, §2, §3

[3] = test system: Corynebacterium xerosis JCM 1324; experiment: MIC by Agar Dilution Test, Cx-2; details: read-out: Minimum inhibitory concentration (MIC)
Protocol: as §1, §2, §3

[4] = test system: Malassezia furfur IFO 0656; experiment: MIC by Agar Dilution Test, Mf-1; details: read-out: Minimum inhibitory concentration (MIC)
Protocol: as §1, §2, §3

[5] = test system: Staphyrococcus aureus 209P IAM 12082; experiment: MIC by Agar Dilution Test, Sa-3; details: read-out: Minimum inhibitory concentration (MIC)
Protocol: as §1, §2, §3

[6] = test system: Bacillus subtilis PCI 219 IFO 3134; experiment: MIC by Agar Dilution Test, Bs-1; details: read-out: Minimum inhibitory concentration (MIC)
Protocol: as §1, §2, §3
(§4) Minimum inhibitory concentration was determined by Agar Dilution Test described in Example 3 to confirm the difference of antibacterial activities at different mixture ratios.

[7] = test system: Staphyrococcus epidermidis ATCC 12228; experiment: MIC by Agar Dilution Test, Se-3; details: read-out: Minimum inhibitory concentration (MIC)
Protocol: as §1, §2, §3

[8] = test system: Staphyrococcus aureus ATCC 6538; experiment: MIC by Agar Dilution Test, Sa-4; details: read-out: Minimum inhibitory concentration (MIC)
Protocol: as §1, §2, §3, §4

[9] = test system: Propionibacterium acnes JCM 6473; experiment: MIC by Agar Dilution Test, Pa-2; details: Cutibacterium acnes, read-out: Minimum inhibitory concentration (MIC)
Protocol: as §1, §2, §3

[10] = test system: Bacteroides fragilis GM 7000 JCM 5560; experiment: MIC by Agar Dilution Test, Bf-1; details: read-out: Minimum inhibitory concentration (MIC)
Protocol: as §1, §2, §3, §4

[11] = test system: Fusobacterium nucleatum JCM 6328; experiment: MIC by Agar Dilution Test, Fn-1; details: read-out: Minimum inhibitory concentration (MIC)
Protocol: as §1, §2, §3

[12] = test system: Porphyromonas gingivalis JCM 8525; experiment: MIC by Agar Dilution Test, Pg-1; details: read-out: Minimum inhibitory concentration (MIC)
Protocol: as §1, §2, §3

[13] = test system: Prevotella intermedia JCM 6322; experiment: MIC by Agar Dilution Test, Pt-1; details: read-out: Minimum inhibitory concentration (MIC)
Protocol: as §1, §2, §3, §4

[14] = test system: Actinomyces naeslundii JCM 8350; experiment: MIC by Agar Dilution Test, Aa-1; details: read-out: Minimum inhibitory concentration (MIC)
Protocol: as §1, §2, §3

[15] = test system: Actinomyces viscosus JCM 8352; experiment: MIC by Agar Dilution Test, Av-1; details: read-out: Minimum inhibitory concentration (MIC)
Protocol: as §1, §2, §3

[16] = test system: Alicyclobacillus Acidocaldarius (NCIMB); experiment: MIC using heat-resistant acidophilic bacteria (liquid medium, turbidity); details: spores in AAM liquid medium, 50° C., 10 days; growth inhibited in all five media
Protocol: (§5) Spores of Alicyclobacillus Acidocaldarius (NCIMB) and Alicyclobacillus Acidoterrestris (NCIMB) were diluted with buffered saline to 1-2 million/100 μl, heated at 80° C. for 10 minutes, and added for 100 μl each per 5 ml of AAM (Alicyclobacillus Acidoterrestris medium) liquid medium. To the test media prepared as above, antibacterial composition (A) obtained in Example 1 was added according to the following steps. Twenty mg/ml, 10 mg/ml, 5 mg/ml and 2.5 mg/ml antibacterial composition (A) in grapefruit flavors were added to respective media (0.1%) (final concentration of antibacterial composition (A): 20 ppm, 10 ppm, 5 ppm and 2.5 ppm). As controls, a medium with 0.1% grapefruit flavor and a blank medium were prepared to confirm that the bacteria grow without a problem. The thus-prepared media were cultured at 50° C. for 10 days, bacteria growth was determined based on the turbidity of the media associated with proliferation of bacteria, thereby checking growth control effects. For each test bacterium and each sample, five media were subjected to the experiment, and a concentration at which bacteria in every media were inhibited was determined as the minimum inhibitory concentration (MIC).
(§6) For comparison, sucrose fatty acid ester was also determined.

[17] = test system: Alicyclobacillus Acidoterrestris (NCIMB); experiment: as above; details: spores in AAM liquid medium, 50° C., 10 days; growth inhibited in all five media
Protocol: as §5, §6

[18] = Se-1, Mueller-Hinton agar, 37° C., 18 hours
[19] = Se-2, Mueller-Hinton agar, 37° C., 18 hours
[20] = JCM1324, Cx-2, Mueller-Hinton agar, 37° C., 18 hours
[21] = Mf-1 (yeast), Sabroud Medium agar
[22] = Sa-3, Mueller-Hinton agar, 37° C., 18 hours
[23] = IFO3134, Bs-1, Mueller-Hinton agar, 37° C., 18 hours
[24] = Se-3, Mueller-Hinton agar, 37° C., 18 hours
[25] = Sa-4, Mueller-Hinton agar, 37° C., 18 hours
[26] = JCM6473, Pa-2, Trypticase Soy agar, 37° C., 72 hours, anaerobic
[27] = JCM5560, Bf-1, Trypticase Soy agar, 37° C., 72 hours, anaerobic
[28] = JCM6328, Fn-1, Trypticase Soy agar, 37° C., 72 hours, anaerobic
[29] = JCM8525, Pg-1, Trypticase Soy agar, 37° C., 72 hours, anaerobic
[30] = JCM6322, Pt-1, Trypticase Soy agar, 37° C., 72 hours, anaerobic
[31] = JCM8350, Aa-1, Trypticase Soy agar, 37° C., 72 hours, anaerobic
[32] = JCM8352, Av-1, Trypticase Soy agar, 37° C., 72 hours, anaerobic

Molecule | MIC [1, 18] [µg/mL] | MIC [2, 19] [µg/mL] | MIC [3, 20] [µg/mL] | MIC [4, 21] [µg/mL] | MIC [5, 22] [µg/mL] | MIC [6, 23] [µg/mL] | MIC [7, 24] [µg/mL] | MIC [8, 25] [µg/mL] | MIC [9, 26] [µg/mL] | MIC [10, 27] [µg/mL] | MIC [11, 28] [µg/mL] | MIC [12, 29] [µg/mL] | MIC [13, 30] [µg/mL] | MIC [14, 31] [µg/mL] | MIC [15, 32] [µg/mL] | MIC ([1]; 18 h) [µg/mL] | MIC ([2]; 18 h) [µg/mL] | MIC ([3]; JCM1324, 18 h) [µg/mL] | MIC [4] [µg/mL] | MIC ([5]; 18 h) [µg/mL] | further results
CC(C)=CCC/C(C)=C\Cc1c2occc2c(O)c2ccc(=O)oc12 [Antibacterial composition (G), 9-(3′,7′-dimethyl-2′,6′-octadienyl)-4-hydroxy-7H-furo[3,2-γ][1]benzopyran-7-one] | 200 (≈ 591 µM) | 200 (≈ 591 µM) | 200 (≈ 591 µM) | 50 (≈ 148 µM) | 100 (≈ 296 µM) | 200 (≈ 591 µM) | 200 (≈ 591 µM) | 200 (≈ 591 µM) | 100 (≈ 296 µM) | 100 (≈ 296 µM) | 50 (≈ 148 µM) | 50 (≈ 148 µM) | 100 (≈ 296 µM) | 200 (≈ 591 µM) | 100 (≈ 296 µM) |  |  |  |  |  | 
COc1cc(O)c2ccc(=O)oc2c1C/C=C(/C)CCC=C(C)C [Antibacterial composition (F), 8-(3′,7′-dimethyl-2′,6′-octadienyl)-5-hydroxy-7-methoxy-2H-1-benzopyran-2-one] | 200 (≈ 609 µM) | 200 (≈ 609 µM) | 200 (≈ 609 µM) | 25 (≈ 76.1 µM) | 25 (≈ 76.1 µM) | 200 (≈ 609 µM) | 200 (≈ 609 µM) | 200 (≈ 609 µM) | 25 (≈ 76.1 µM) | 100 (≈ 304 µM) | 25 (≈ 76.1 µM) | 25 (≈ 76.1 µM) | 100 (≈ 304 µM) | 25 (≈ 76.1 µM) | 25 (≈ 76.1 µM) |  |  |  |  |  | 
sucrose fatty acid ester |  |  |  |  |  |  |  |  |  |  |  |  |  |  |  |  |  |  |  |  | Minimum inhibitory concentration (MIC) [16]: 20 ppm; Minimum inhibitory concentration (MIC) [17]: 20 ppm
Oc1cc(Cl)ccc1Oc1ccc(Cl)cc1Cl [Triclosan, triclosan, reference compound] |  |  |  |  |  |  |  |  |  |  |  |  |  |  |  | 1.6 (≈ 5.53 µM) | 1.6 (≈ 5.53 µM) | 3.1 (≈ 10.7 µM) | 1.6 (≈ 5.53 µM) | 1.6 (≈ 5.53 µM) | MIC ([6]; IFO3134, 18 h): 0.78 µg/mL (≈ 2.69 µM); MIC ([7]; 18 h): 1.6 µg/mL (≈ 5.53 µM); MIC ([8]; 18 h): 1.6 µg/mL (≈ 5.53 µM)
CCCCOC(=O)c1ccc(O)cc1 [Butylparaben, butylparaben, reference compound] |  |  |  |  |  |  |  |  |  |  |  |  |  |  |  | 200 (≈ 1030 µM) | 200 (≈ 1030 µM) | 50 (≈ 257 µM) | 100 (≈ 515 µM) | 100 (≈ 515 µM) | MIC ([6]; IFO3134, 18 h): 200 µg/mL (≈ 1030 µM); MIC ([7]; 18 h): 200 µg/mL (≈ 1030 µM); MIC ([8]; 18 h): 200 µg/mL (≈ 1030 µM); MIC ([9]; JCM6473, 72 h): 100 µg/mL (≈ 515 µM); MIC ([10]; JCM5560, 72 h): 50 µg/mL (≈ 257 µM); MIC ([11]; JCM6328, 72 h): 100 µg/mL (≈ 515 µM); MIC ([12]; JCM8525, 72 h): 50 µg/mL (≈ 257 µM); MIC ([13]; JCM6322, 72 h): 100 µg/mL (≈ 515 µM); MIC ([14]; JCM8350, 72 h): 100 µg/mL (≈ 515 µM); MIC ([15]; JCM8352, 72 h): 100 µg/mL (≈ 515 µM)
